Molecules are shown by their SMILES. Structures can show the parent of a compound that is named as a salt.

For orientation: TGI means how far tumour growth fell short of that in controls.

In one series the target is T1, CYP1A2 (Homo sapiens, UniProt P05177).
T1 sequence (P05177 1-516): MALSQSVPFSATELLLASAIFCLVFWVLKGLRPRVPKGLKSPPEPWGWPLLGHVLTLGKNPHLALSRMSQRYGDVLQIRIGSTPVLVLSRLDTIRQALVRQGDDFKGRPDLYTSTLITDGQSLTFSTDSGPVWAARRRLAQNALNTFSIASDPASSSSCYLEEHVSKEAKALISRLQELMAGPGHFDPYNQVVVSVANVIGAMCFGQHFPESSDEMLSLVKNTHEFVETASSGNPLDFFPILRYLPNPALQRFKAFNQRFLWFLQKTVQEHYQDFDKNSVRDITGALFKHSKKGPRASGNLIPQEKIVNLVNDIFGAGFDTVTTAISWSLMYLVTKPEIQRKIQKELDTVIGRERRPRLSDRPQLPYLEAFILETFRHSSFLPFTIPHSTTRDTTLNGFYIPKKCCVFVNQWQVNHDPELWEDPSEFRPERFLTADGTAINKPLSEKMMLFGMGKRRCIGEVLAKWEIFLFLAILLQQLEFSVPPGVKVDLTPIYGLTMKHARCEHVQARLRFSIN
Kind of series: CYP inhibition profile. To be noted: compound 10 μM. The class given is in vitro ADME. An excerpt: Table 3. CYP inhibition profile. | column: % inhibition / CYP1A2

Another series has as its target CYP2C9 (Homo sapiens, UniProt P11712). Nature of the series: CYP inhibition profile. The class given is in vitro ADME. To be noted: compound 10 μM. An excerpt:
Table 3. CYP inhibition profile. | column: % inhibition / CYP2C9

The next series addresses CYP2C19 (Homo sapiens, UniProt P33261). Nature of the series: CYP inhibition profile. The class given is in vitro ADME. To be noted: compound 10 μM. An excerpt:
Table 3. CYP inhibition profile. | column: % inhibition / CYP2C19

The next series addresses CYP2D6 (Homo sapiens, UniProt P10635). Nature of the series: CYP inhibition profile. The series is classed as in vitro ADME. To be noted: compound 10 μM. An excerpt: Table 3. CYP inhibition profile. | column: % inhibition / CYP2D6
A further series has as its target CYP3A4 (Homo sapiens, UniProt P08684). Kind of series: CYP inhibition profile. The series is classed as in vitro ADME. To be noted: compound 10 μM. The source says: Table 3. CYP inhibition profile. | column: % inhibition / CYP3A4
A short description of series [1]: liver microsomal stability. The series is classed as in vitro ADME, human. To be noted: % remaining during 30 min at 1 µM. On the technique in general: Liver microsomes are vesicles of endoplasmic reticulum, rich in cytochrome P450 enzymes.
In a further series the test system is THP-1 cells. Kind of series: cell viability assay (MTS). The class given is cell-based, human. To be noted: all concentrations tested. As to the method: Cell viability assay was performed using residual cells after luciferase assay. Cells were analysed using CellTiter 96 Aqueous One Solution Proliferation Assay (MTS, Promega) according to the manufactural protocols. Absorbance signal were measured using microplate reader (TECAN). Results were normalized using DMSO as a control.

The test system of series [2] is interferon stimulated genes (ISG) CXCL10, OAS1, IFITM1 in THP-1 cells. Nature of the series: real-time PCR of interferon stimulated genes. The class given is cell-based, human. To be noted: co-treatment with cGAMP, 4 h, normalized by GAPDH. As for the experimental part:
Next, we further explored type I IFN response induced by activation of STING signalling. The gene expression for various interferon stimulated genes (ISGs) such as CXCL10, OAS1, and IFITM1 was analysed by real-time PCR.
Figure 5. Real-time PCR analysis for gene expression of various interferon stimulated genes (ISG), CXCL10, OAS1, and IFITM1. THP-1 cells were stimulated by indicated concentration of 18p for 4 h. The relative gene expression level was normalized by GAPDH as an internal standard. Graphs depict mean and RQ max values.
Cells were harvest and RNA were isolated using NucleoSpin RNA plus (MN) according to the manufacturer’s instructions. Genomic DNA was removed and cDNA was synthesised using an iScript gDNA clear cDNA synthesis kit (Bio-Rad). Expression levels were assessed by real-time PCR (CFX96 Real-Time PCR detection system, Bio-rad) using IQ SYBR green Supermix (Bio-Rad). The mRNA levels were normalized by GAPDH and calculated by comparative Ct method.

The test system of series [3] is 4T1 syngeneic mouse tumour model. Nature of the series: 4T1 syngeneic mouse tumour model efficacy. The series is classed as in vivo. To be noted: 40 mg/kg orally once daily, day 14, 4T1 tumour in BALB/c mice. As to the method:
(§1) Thus, we evaluated the anti-cancer efficacy in the 4T1 syngeneic mouse tumour model to test the therapeutic potential of 18p. We postulated the marginal amount of cGAMP released by tumour could initiate the synergy effect of 18p, then administrated the compound by single-treatment[5]. After 4T1 tumour cells were implanted and grown in the flank of mice, 18p was orally administered (40 mg/kg) once daily and monitored the tumour volume and body weight of each mouse.
(§2) Figure 7. 4 × 10^5 of 4T1 cells were subcutaneously inoculated into right side flank of BLAB/c mice (n = 6). Mice were orally administrated by 18p (40 mg/kg) or vehicle by every day. (a) Tumour growth curve of 18p or vehicle. X-axis indicates days after treatment. (b) Tumour growth (%) on day 14. (c) Body weight of 18p or vehicle. X-axis indicates days after treatment. Statistics for tumour volume and tumour growth were analysed by 2way ANOVA and student t-test. *p < 0.05. **p < 0.01. Graphs are depicted by mean and SD.
(§3) The study for murine 4T1 […] was approved by the Institutional Animal Care and Use Committee (IACUC) of the Korea Institute of Science and Technology (KIST-2021–04-048). Female BALB/c mice were 8 weeks obtained from DBL (Korea). […] Tumour volume was calculated by following formula: Tumour volume (mm^3) = 0.5 × [length, (mm) × width, (mm)2].

Series [4] is described as follows: body weight in 4T1 syngeneic mouse tumour model. The series is classed as in vivo, BALB/c mice. To be noted: 40 mg/kg orally once daily, two weeks, 4T1 tumour-bearing mice. As to the method: as §1, §2, §3
Series [5] concerns IFN-β secretion in THP-1 cells. Kind of series: IFN-β cytokine release by ELISA. To be noted: co-treatment with cGAMP, 8 h.
Protocol: (§4) Extracellular secretion of IFN-β and IP-10 was measured by enzyme-linked immunosorbent assay (ELISA).
(§5) THP-1 cells were seeded in 96 well plate and treated with the compounds for 8 h incubation. 100 μL of cell culture supernatant was harvested and analysed using manufactural protocols.
The subject of series [6] is IP-10 secretion in THP-1 cells. Nature of the series: IP-10 cytokine secretion by ELISA. To be noted: co-treatment with cGAMP, 8 h. A general note: In an ELISA, binding on a coated surface is turned into a signal by an enzyme label.
Protocol: as §4, §5
For series [7], the system named is ISRE-mediated reporter gene induction in THP-1 cells. Kind of series: ISRE/IRF luciferase reporter assay in THP-1 dual cells with cGAMP. To be noted: co-treatment with cGAMP (1 μg/mL), 24 h. For orientation: Reporter assays use an easily measured gene product as a stand-in for the process of interest.

Sequence of CYP2C9 (P11712 whole entry): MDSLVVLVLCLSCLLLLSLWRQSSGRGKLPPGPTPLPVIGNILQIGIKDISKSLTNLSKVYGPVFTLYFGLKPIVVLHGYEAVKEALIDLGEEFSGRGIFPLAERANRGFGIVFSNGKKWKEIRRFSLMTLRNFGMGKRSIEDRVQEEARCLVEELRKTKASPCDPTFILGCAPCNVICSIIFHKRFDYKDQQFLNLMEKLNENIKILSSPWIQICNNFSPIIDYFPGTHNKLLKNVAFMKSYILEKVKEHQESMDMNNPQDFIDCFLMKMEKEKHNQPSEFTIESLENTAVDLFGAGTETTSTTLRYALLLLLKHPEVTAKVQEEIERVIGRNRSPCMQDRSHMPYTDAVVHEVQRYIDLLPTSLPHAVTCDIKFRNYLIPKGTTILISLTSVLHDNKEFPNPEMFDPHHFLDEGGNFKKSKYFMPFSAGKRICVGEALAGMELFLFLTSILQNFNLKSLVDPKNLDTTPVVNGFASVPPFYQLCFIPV
Sequence of CYP3A4 (P08684 whole entry): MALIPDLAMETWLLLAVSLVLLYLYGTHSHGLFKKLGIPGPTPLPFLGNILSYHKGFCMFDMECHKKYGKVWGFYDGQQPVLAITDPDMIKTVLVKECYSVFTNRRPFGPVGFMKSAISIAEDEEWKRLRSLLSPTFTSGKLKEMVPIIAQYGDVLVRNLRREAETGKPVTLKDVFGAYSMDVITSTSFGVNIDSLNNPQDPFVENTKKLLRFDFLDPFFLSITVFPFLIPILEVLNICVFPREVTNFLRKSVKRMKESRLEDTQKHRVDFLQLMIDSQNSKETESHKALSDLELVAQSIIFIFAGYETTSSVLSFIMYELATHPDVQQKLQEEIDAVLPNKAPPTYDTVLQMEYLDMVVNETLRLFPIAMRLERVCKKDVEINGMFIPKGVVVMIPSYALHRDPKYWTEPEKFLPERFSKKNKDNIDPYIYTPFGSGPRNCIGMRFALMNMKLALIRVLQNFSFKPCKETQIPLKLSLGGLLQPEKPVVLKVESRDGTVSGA
Sequence of CYP2C19 (P33261 whole entry): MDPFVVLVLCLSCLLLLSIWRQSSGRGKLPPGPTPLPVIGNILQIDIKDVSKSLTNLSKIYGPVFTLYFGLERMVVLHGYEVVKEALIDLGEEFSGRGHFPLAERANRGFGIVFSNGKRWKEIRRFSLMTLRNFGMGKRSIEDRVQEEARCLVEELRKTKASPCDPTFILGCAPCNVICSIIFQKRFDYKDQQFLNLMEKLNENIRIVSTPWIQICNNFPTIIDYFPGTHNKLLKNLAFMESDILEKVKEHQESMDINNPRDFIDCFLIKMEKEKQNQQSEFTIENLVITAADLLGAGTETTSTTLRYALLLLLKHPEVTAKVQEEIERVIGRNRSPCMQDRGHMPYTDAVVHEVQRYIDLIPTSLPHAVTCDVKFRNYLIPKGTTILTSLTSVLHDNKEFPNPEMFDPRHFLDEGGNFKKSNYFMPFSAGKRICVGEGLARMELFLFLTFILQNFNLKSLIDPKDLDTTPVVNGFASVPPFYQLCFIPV
Sequence of CYP2D6 (P10635 whole entry): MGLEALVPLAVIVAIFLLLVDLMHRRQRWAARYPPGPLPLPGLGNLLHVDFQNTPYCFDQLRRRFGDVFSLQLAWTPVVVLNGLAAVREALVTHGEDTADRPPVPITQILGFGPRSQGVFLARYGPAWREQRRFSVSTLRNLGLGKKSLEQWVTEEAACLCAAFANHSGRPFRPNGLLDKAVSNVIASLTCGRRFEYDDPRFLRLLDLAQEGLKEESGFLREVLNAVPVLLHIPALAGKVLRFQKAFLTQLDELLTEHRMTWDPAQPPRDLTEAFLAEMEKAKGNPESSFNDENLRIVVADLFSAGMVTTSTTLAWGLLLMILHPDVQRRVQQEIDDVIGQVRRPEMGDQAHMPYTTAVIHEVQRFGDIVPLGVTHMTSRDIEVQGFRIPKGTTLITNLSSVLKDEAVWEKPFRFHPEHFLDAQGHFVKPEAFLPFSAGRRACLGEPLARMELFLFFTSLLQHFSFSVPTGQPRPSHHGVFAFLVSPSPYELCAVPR

Turning to `CC1(CNS(N)(=O)=O)CCN(c2ncnc3[nH]ccc23)CC1` [18p, N-((4-Methyl-1-(7H-pyrrolo[2,3-d]pyrimidin-4-yl)piperidin-4-yl)methyl)methanesulfamide hydrochloride], the “% inhibition CYP1A2” value at CYP1A2 is 12.0%. Further, the “% inhibition CYP2C9” value on CYP2C9 is on record as 0.0%. At CYP2C19, the “% inhibition CYP2C19” value was 10.3%. Moreover, on CYP2D6, the “% inhibition CYP2D6” value is recorded as 0.5%. On CYP3A4, the “% inhibition CYP3A4” value is listed as 8.9%. Also, the “Microsomal stability (%) Human” value in series [1] came out at 93%. The “cell viability / toxicity” value in the series on THP-1 cells was “no obvious toxicity”. In series [2], the “gene expression of interferon stimulated genes (CXCL10, OAS1, IFITM1)” value was “induced expression of all ISG genes we tested”. The TGI in series [3] is given as 39%. The body weight result in [4] is recorded as “no weight loss”. For the same compound, the IFN-β cytokine release entry in series [5] is “secreted more cytokine than with cGAMP alone”. Moreover, the IP-10 cytokine secretion result in series [6] is given as “secreted more cytokine than with cGAMP alone”. In series [7], the “cGAMP-induced ISRE activation (luciferase signal)” value was “clearly increased the cGAMP-induced ISRE activation in dose-dependent manner”.

The values above are taken from PMC9467556, “Identification of novel pyrrolopyrimidine and pyrrolopyridine derivatives as potent ENPP1 inhibitors” (Journal of Enzyme Inhibition and Medicinal Chemistry, 2022).
